Results on one substance are retold here after patent publication US20070093538A1, “Preparation for the fungicidal and algicidal finish of alkaline coating compositions” (priority 2005, published 2007).

This experiment has as its system Scenedesmus cavuolatus (CS, Chlorella fusca). In words: Determination of the resistance to colonization by algae (render coat on paper, media for algae). In kind it is cell-based. To be noted: +0.25% benzalkonium chloride, 50% strength, 5 month storage. As to the method: The unfinished material (commercially available render, pH 11.5) is treated, in separate batches, with different concentrations of the preservative A according to the invention.
The test was carried out once after the samples had been prepared and then after storage in wet render for 3 months or 5 months.
Laboratory method for determining the resistance of facade coats to colonization by algae. In this method, facade coats on standardized paper are used as the test substrate, and Scenedesmus cavuolatus (CS, Chlorella fusca) as the test alga.
The experiments are carried out in Petri dishes on media for algae.
1000 g of the material to be finished were, in separate batches, mixed with various concentrations of the test microbicide and homogenized using a suitable stirrer.
Paper supports (Schleicher & Schüll No. 2589 B/X 24078) 90×270 mm in size are coated with the test material. The paint or render samples are applied as a coat to wet-layer thickness of 250 μm, using a knife. The knife must have an opening of at least 6.5 cm in width. In the case of renders, the layer thickness depends on the particle size, as is the case under practice conditions. The coated supports, hereinbelow referred to as test specimens, are subsequently dried for 5 days in a horizontal position. […]
The colonization of the samples with algae is examined and evaluated after 2 weeks. […]

Take “benzalkonium chloride [benzalkonium chloride, 50% strength]”: the “Inhibitory zone in mm” value is, setting by setting: (first group of rows (leaching not given, presumably none)) above 18 mm; (second group of rows (leaching not given, presumably 72 h)) above 18 mm.
